According to ChEMBL document CHEMBL1201862, “PubChem BioAssay data set” (2004):
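Each compound was tested at five concentrations against cells in 96-well plates for 48 hours. Abbreviation: GI50, concentration required for 50% inhibition of growth.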 Activity calls are given as the source filed them. Cut-off read from the data, not from the text of the source: active = GI50 up to about 1.1 µM and inactive = higher.

Legend:
Assay in all cases: inhibition of tumour cell growth, NCI panel, 48 h
[1] = system: 786-0
[2] = system: A498
[3] = system: A549
[4] = system: ACHN
[5] = system: BT-549
[6] = system: CAKI-1
[7] = system: CCRF-CEM
[8] = system: COLO 205
[9] = system: DU-145
[10] = system: EKVX
[11] = system: HCC 2998
[12] = system: HCT-116
[13] = system: HCT-15
[14] = system: HL-60
[15] = system: HOP-62
[16] = system: HOP-92
[17] = system: HT-29
[18] = system: Hs-578T
[19] = system: IGROV-1
[20] = system: K562
[21] = system: KM12
[22] = system: LOX IMVI
[23] = system: M14
[24] = system: MCF7
[25] = system: MDA-MB-231
[26] = system: MDA-MB-435
[27] = system: MDA-N
[28] = system: MOLT-4
[29] = system: Malme-3M
[30] = system: NCI-H226
[31] = system: NCI-H23
[32] = system: NCI-H460
[33] = system: NCI-H522
[34] = system: NCI/ADR-RES
[35] = system: OVCAR-3
[36] = system: OVCAR-4
[37] = system: OVCAR-5
[38] = system: OVCAR-8
[39] = system: PC-3
[40] = system: RPMI-8226
[41] = system: RXF 393
[42] = system: SF-268
[43] = system: SF-295
[44] = system: SF-539
[45] = system: SK-MEL-28
[46] = system: SK-MEL-2
[47] = system: SK-MEL-5
[48] = system: SK-OV-3
[49] = system: SN12C
[50] = system: SNB-19
[51] = system: SNB-75
[52] = system: SR
[53] = system: SW-620
[54] = system: T47D
[55] = system: TK-10
[56] = system: U-251
[57] = system: UACC-257
[58] = system: UACC-62
[59] = system: UO-31

Measured: GI50

CCOC(=O)C(Cc1cccn1C(=O)OC(C)(C)C)[N+](=O)[O-] (stereo not drawn)
inactive: [1] 21.9 µM | [2] 23.5 µM | [3] 32 µM | [4] 22.3 µM | [5] 30.8 µM | [6] 24.7 µM | [7] 17.1 µM | [8] 20.8 µM | [9] 26.9 µM | [10] 48.3 µM | [11] 21 µM | [12] 20.9 µM | [14] 21.1 µM | [15] 23.9 µM | [16] 28.2 µM | [17] 22.3 µM | [18] 29.9 µM | [19] 21.5 µM | [20] 24.7 µM | [21] 22.8 µM | [22] 17.5 µM | [23] 19.2 µM | [24] 37.7 µM | [25] 19 µM | [26] 26.6 µM | [27] 26.7 µM | [28] 20 µM | [29] 28.1 µM | [30] 26.1 µM | [31] 34.8 µM | [32] 24.3 µM | [33] 19.6 µM | [34] 44.7 µM | [35] 32.1 µM | [36] 28.6 µM | [37] 23.8 µM | [38] 31.7 µM | [39] 20.7 µM | [40] 20.5 µM | [41] 17.6 µM | [42] 33.9 µM | [43] 30.6 µM | [44] 22.1 µM | [45] 27.4 µM | [46] 20.1 µM | [47] 21.2 µM | [48] > 100 µM | [49] 23.9 µM | [50] 25.2 µM | [51] 23.7 µM | [52] 19 µM | [53] 23.8 µM | [54] 33.4 µM | [55] 22.3 µM | [56] 20.8 µM | [57] 28.3 µM | [58] 21.5 µM | [59] 21.2 µM
24.3 µM: [13]

COCC(=O)OC1CCn2c1nc1c2C(=O)C(C)=C(NC(C)=O)C1=N (stereo not drawn)
inactive: [1] 3.03 µM | [2] 18.5 µM | [3] 21.3 µM | [4] 7.71 µM | [6] 11.2 µM | [7] 2.1 µM | [8] 12.5 µM | [9] 20.4 µM | [10] 12.3 µM | [11] 13.7 µM | [12] 3.08 µM | [14] 2.9 µM | [15] 15.6 µM | [16] 3.57 µM | [17] 4.21 µM | [18] 4.1 µM | [19] 10.8 µM | [20] 2.63 µM | [21] 14.2 µM | [22] 2.53 µM | [23] 4.95 µM | [24] 1.69 µM | [25] 3.27 µM | [26] 1.66 µM | [27] 1.82 µM | [28] 2.34 µM | [29] 1.38 µM | [30] 18.5 µM | [31] 4.34 µM | [32] 14 µM | [33] 5.01 µM | [34] 3.99 µM | [35] 2.03 µM | [36] 2.19 µM | [37] 9.91 µM | [38] 2.56 µM | [39] 2.58 µM | [40] 2.27 µM | [41] 2.16 µM | [42] 5.19 µM | [43] 16.1 µM | [44] 2.07 µM | [45] 4.59 µM | [46] 2.15 µM | [47] 2.42 µM | [48] 17.7 µM | [49] 3.72 µM | [50] 17.9 µM | [51] 15.3 µM | [52] 2.64 µM | [53] 2.49 µM | [54] 1.95 µM | [55] 15.6 µM | [56] 5.38 µM | [57] 2.43 µM | [58] 1.66 µM | [59] 11.6 µM
active: [5] 0.993 µM
8.13 µM: [13]
